In the supplement of paper PMC6315032:

Legend:
Assay in all cases: apparent dissociation constant (pKDapp, Kinobeads competition, Cheng-Prusoff corrected) (-log10 M); higher = tighter binding
Conditions in all cases: affinity matrix / lysate: Kinobeads, mixed HEK293/K-562/placenta lysate
CSNK1G2 = CSNK1G2 (UniProt P78368)
ROCK2 = ROCK2 (UniProt O75116)
EIF2AK3 = EIF2AK3 (UniProt Q9NZJ5)
BRD4 = BRD4 (UniProt O60885)
SIK1 = SIK1 (UniProt P57059)
PAK6 = PAK6 (UniProt Q9NQU5)
TLK1 = TLK1 (UniProt Q9UKI8)
DYRK2 = DYRK2 (UniProt Q92630)
Chain of DYRK2 (Q92630 whole entry): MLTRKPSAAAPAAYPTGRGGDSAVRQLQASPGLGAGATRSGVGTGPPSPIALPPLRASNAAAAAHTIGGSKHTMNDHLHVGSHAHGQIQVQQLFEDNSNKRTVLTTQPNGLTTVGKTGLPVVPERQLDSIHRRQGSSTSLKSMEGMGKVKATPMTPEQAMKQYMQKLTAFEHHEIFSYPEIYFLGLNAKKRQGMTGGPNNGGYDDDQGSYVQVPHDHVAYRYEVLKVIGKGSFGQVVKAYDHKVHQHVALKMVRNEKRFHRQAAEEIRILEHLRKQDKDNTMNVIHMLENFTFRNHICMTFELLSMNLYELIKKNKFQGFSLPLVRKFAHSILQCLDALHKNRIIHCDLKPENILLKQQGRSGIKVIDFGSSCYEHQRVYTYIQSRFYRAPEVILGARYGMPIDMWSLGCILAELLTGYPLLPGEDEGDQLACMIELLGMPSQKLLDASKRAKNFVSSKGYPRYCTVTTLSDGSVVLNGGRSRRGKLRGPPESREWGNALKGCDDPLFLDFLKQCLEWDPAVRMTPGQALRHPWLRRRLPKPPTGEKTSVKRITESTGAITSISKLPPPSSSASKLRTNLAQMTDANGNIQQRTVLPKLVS

CSNK1G1 = CSNK1G1 (UniProt Q9HCP0)
CSNK1G3 = CSNK1G3 (UniProt Q9Y6M4)
Chain of CSNK1G3 (Q9Y6M4 whole entry, looked up): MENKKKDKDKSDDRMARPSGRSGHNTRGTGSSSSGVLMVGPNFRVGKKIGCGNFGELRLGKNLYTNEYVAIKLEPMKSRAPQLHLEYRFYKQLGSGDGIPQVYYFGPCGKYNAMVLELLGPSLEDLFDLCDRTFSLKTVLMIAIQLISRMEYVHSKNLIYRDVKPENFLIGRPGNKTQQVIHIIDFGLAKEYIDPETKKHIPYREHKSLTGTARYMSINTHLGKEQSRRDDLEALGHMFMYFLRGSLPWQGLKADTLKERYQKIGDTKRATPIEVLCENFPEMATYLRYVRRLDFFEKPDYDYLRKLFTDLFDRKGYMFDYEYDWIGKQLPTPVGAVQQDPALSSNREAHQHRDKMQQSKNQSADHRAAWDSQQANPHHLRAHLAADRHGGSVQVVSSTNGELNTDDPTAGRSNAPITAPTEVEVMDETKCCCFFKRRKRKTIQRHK

LCK = LCK (UniProt P06239)
EIF2AK2 = EIF2AK2 (UniProt P19525)
Chain of EIF2AK2 (P19525 whole entry): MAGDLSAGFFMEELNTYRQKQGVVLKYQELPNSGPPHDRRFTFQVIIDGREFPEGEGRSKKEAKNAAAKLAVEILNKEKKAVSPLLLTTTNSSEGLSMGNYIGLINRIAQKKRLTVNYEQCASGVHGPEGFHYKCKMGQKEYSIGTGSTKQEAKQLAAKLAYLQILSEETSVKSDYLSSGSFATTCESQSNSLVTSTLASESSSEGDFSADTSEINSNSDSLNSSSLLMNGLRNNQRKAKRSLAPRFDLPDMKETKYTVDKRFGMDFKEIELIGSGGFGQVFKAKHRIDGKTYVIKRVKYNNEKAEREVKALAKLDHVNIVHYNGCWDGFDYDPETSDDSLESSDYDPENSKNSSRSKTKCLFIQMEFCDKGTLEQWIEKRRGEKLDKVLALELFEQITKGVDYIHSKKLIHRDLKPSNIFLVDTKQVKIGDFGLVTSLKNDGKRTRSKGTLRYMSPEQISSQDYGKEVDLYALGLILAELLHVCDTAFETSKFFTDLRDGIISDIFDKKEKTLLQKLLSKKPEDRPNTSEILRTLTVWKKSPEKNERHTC

CAMK1D = CAMK1D (UniProt Q8IU85)
Chain of CAMK1D (Q8IU85 whole entry, looked up): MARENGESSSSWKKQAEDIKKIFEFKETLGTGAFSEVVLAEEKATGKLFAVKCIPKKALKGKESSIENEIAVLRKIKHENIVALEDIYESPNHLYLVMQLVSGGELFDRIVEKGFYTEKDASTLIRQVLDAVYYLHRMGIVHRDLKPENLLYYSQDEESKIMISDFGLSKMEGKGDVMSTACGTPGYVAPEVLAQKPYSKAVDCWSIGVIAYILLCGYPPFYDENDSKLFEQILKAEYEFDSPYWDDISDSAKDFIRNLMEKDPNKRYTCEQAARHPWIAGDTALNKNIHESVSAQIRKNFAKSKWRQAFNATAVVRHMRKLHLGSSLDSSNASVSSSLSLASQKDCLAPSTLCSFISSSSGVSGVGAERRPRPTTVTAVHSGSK

SGK1 = SGK1 (UniProt O00141)
ACVRL1 = ACVRL1 (UniProt P37023)
Chain of ACVRL1 (P37023 whole entry): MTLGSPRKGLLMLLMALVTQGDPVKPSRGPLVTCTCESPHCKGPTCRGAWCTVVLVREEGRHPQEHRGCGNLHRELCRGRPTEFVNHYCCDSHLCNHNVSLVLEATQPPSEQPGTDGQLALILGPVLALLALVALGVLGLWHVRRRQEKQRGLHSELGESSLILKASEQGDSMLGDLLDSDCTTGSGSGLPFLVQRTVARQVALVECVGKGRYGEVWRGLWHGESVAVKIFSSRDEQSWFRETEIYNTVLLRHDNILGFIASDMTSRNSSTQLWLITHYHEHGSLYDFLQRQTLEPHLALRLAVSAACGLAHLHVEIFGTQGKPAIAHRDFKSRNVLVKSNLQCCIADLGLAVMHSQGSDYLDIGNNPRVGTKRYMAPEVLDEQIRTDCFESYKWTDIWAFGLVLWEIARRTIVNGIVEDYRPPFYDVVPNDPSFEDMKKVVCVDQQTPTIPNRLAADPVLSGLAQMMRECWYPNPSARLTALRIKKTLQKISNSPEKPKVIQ

UHMK1 = UHMK1 (UniProt Q8TAS1)
Chain of UHMK1 (Q8TAS1 whole entry): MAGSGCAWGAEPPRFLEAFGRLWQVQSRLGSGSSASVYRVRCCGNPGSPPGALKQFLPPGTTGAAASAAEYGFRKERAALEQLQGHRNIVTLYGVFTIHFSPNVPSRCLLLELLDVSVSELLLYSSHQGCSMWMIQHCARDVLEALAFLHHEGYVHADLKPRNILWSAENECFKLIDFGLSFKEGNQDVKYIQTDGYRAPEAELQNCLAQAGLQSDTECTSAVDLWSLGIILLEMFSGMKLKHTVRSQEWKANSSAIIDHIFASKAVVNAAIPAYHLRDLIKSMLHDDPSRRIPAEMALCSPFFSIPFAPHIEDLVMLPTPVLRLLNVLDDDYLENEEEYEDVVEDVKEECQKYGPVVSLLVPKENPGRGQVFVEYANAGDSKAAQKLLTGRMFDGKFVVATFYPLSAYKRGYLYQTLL

RP6-213H19 1 = target: RP6-213H19 1

Measured: apparent dissociation constant (-log10 M)

Chain of EIF2AK3 (Q9NZJ5 whole entry): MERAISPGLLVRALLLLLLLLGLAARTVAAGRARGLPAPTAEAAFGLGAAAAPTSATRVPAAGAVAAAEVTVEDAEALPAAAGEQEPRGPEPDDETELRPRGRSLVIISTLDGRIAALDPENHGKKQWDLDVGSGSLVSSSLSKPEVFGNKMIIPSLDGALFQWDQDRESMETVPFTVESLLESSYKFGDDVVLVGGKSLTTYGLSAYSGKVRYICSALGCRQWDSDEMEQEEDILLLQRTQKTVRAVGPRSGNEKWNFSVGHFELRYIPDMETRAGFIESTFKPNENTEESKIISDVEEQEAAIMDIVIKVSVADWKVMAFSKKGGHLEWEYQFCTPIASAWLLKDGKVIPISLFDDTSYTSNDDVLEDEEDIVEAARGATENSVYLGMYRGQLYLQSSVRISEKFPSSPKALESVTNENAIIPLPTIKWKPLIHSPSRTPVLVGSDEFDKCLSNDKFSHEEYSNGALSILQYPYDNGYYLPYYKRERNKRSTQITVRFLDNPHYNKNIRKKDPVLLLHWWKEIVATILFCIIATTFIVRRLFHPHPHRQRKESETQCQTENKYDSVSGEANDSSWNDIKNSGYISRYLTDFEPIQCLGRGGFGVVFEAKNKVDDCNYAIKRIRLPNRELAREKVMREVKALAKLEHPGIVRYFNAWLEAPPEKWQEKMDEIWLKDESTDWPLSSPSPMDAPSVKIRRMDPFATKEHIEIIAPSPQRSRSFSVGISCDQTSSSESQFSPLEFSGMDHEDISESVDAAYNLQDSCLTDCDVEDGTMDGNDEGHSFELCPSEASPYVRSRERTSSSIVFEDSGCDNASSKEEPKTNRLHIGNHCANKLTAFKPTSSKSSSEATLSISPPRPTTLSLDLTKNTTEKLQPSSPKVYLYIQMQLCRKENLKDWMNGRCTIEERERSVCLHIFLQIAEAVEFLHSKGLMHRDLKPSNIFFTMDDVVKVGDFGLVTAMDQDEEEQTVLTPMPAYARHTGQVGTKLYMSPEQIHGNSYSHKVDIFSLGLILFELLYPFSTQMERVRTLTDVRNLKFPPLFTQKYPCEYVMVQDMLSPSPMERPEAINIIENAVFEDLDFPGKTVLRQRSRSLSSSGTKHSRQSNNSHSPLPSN
Chain of PAK6 (Q9NQU5 whole entry, looked up): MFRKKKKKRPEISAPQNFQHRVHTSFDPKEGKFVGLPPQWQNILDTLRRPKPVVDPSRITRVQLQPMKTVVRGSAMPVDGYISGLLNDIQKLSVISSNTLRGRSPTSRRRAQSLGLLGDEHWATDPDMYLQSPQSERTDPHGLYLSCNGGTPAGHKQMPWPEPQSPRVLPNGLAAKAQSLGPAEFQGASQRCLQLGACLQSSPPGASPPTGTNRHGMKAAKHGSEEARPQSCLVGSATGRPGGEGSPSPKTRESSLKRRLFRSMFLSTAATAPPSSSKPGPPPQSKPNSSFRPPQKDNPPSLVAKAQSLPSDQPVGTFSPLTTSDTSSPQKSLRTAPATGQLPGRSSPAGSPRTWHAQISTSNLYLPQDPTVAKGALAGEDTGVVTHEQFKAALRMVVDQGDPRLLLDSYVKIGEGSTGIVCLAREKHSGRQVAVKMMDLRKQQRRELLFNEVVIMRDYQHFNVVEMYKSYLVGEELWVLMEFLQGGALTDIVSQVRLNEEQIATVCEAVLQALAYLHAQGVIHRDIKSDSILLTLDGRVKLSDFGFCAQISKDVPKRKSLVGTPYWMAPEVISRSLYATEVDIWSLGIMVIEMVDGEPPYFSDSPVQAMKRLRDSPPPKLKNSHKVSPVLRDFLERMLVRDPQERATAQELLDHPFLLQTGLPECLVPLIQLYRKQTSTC

COc1ccc(-c2ccc3c(N4CCOC[C@@H]4C)nc(N4CCOC[C@@H]4C)nc3n2)cc1CO [AZD8055]
< 6: CSNK1G2 | ROCK2

CCNC(=O)Nc1ccc(-c2nc(N3CCOC[C@@H]3C)c3c(n2)C(C)(C)S(=O)(=O)C3)cc1 [CZ415]
not listed: CSNK1G2 | ROCK2
< 6: all other assays above
